Data published in the CheMixHub viscosity set.
± gives the uncertainty stated by the source.

Assay: xn = mol fraction of the nth substance listed

C1CCCCCCC1 + C1CCCC1
101 kPa
Conditions | viscosity [mPa·s]
298.15 K, x1 = 0.0472 | 0.4501 ± 0.0048
298.15 K, x1 = 0.06 | 0.4609 ± 0.0049
298.15 K, x1 = 0.1203 | 0.5119 ± 0.0053
298.15 K, x1 = 0.1974 | 0.5838 ± 0.006
298.15 K, x1 = 0.1982 | 0.5837 ± 0.006
298.15 K, x1 = 0.2776 | 0.6681 ± 0.0068
298.15 K, x1 = 0.4053 | 0.824 ± 0.008
298.15 K, x1 = 0.4083 | 0.827 ± 0.008
298.15 K, x1 = 0.5052 | 0.968 ± 0.01
298.15 K, x1 = 0.5909 | 1.116 ± 0.011
298.15 K, x1 = 0.6747 | 1.276 ± 0.013
298.15 K, x1 = 0.7902 | 1.55 ± 0.015
298.15 K, x1 = 0.9049 | 1.895 ± 0.019
303.15 K, x2 = 0.1036 | 1.684 ± 0.01
303.15 K, x2 = 0.2009 | 1.421 ± 0.0085
303.15 K, x2 = 0.3014 | 1.205 ± 0.0073
303.15 K, x2 = 0.3972 | 1.031 ± 0.0064
303.15 K, x2 = 0.5003 | 0.8744 ± 0.0055
303.15 K, x2 = 0.5992 | 0.7468 ± 0.0049
303.15 K, x2 = 0.7036 | 0.6288 ± 0.0043
303.15 K, x2 = 0.8996 | 0.4555 ± 0.0036

C1CCCCCCC1 + C1CCCCC1
viscosity [mPa·s], 101 kPa
Conditions | 303.15 K | 308.15 K | 313.15 K
x2 = 0.0546 | – | 1.706 ± 0.027 | 1.541 ± 0.024
x2 = 0.0923 | 1.877 ± 0.011 | – | –
x2 = 0.1695 | – | 1.514 ± 0.024 | 1.381 ± 0.022
x2 = 0.2019 | 1.715 ± 0.01 | – | –
x2 = 0.2513 | – | 1.41 ± 0.022 | 1.277 ± 0.02
x2 = 0.2992 | 1.585 ± 0.0094 | – | –
x2 = 0.3712 | – | 1.274 ± 0.02 | 1.165 ± 0.019
x2 = 0.4839 | – | 1.158 ± 0.019 | 1.054 ± 0.017
x2 = 0.4989 | 1.344 ± 0.0081 | – | –
x2 = 0.5516 | – | 1.097 ± 0.018 | 1.004 ± 0.017
x2 = 0.5811 | 1.254 ± 0.0076 | – | –
x2 = 0.6466 | 1.183 ± 0.0072 | – | –
x2 = 0.6567 | – | 1.006 ± 0.017 | 0.9146 ± 0.015
x2 = 0.7233 | 1.102 ± 0.0068 | – | –
x2 = 0.7817 | – | 0.9053 ± 0.015 | 0.8267 ± 0.014
x2 = 0.8015 | 1.021 ± 0.0063 | – | –
x2 = 0.8998 | 0.924 ± 0.0058 | – | –
x2 = 0.9314 | – | 0.8049 ± 0.014 | 0.7359 ± 0.013

CCCCC + C1CCCCC1
101 kPa
Conditions | viscosity [mPa·s]
293.15 K, x2 = 0.2248 | 0.287 ± 0.008
293.15 K, x2 = 0.3367 | 0.327 ± 0.009
293.15 K, x2 = 0.4743 | 0.39 ± 0.01
293.15 K, x2 = 0.601 | 0.466 ± 0.012
293.15 K, x2 = 0.7202 | 0.561 ± 0.015
293.15 K, x2 = 0.8333 | 0.685 ± 0.018
298.15 K, x2 = 0.176 | 0.264 ± 0.007
298.15 K, x2 = 0.3541 | 0.321 ± 0.009
298.15 K, x2 = 0.4788 | 0.372 ± 0.01
298.15 K, x2 = 0.6163 | 0.447 ± 0.013
298.15 K, x2 = 0.7478 | 0.544 ± 0.02
298.15 K, x2 = 0.8754 | 0.68 ± 0.026

CCCCCCCO + C1CCCCC1
viscosity [mPa·s]
Conditions | 293.15 K | 303.15 K | 313.15 K | 323.15 K
100 kPa, x2 = 0.0812 | 6.08 ± 0.49 | 4.38 ± 0.35 | 3.22 ± 0.26 | 2.46 ± 0.2
100 kPa, x2 = 0.1614 | 5.3 ± 0.43 | 3.79 ± 0.3 | 2.82 ± 0.23 | 2.16 ± 0.17
100 kPa, x2 = 0.2386 | 4.61 ± 0.37 | 3.28 ± 0.26 | 2.47 ± 0.2 | 1.91 ± 0.15
100 kPa, x2 = 0.3496 | 3.76 ± 0.3 | 2.69 ± 0.22 | 2.05 ± 0.16 | 1.59 ± 0.13
100 kPa, x2 = 0.4387 | 3.17 ± 0.25 | 2.28 ± 0.18 | 1.75 ± 0.14 | 1.38 ± 0.11
100 kPa, x2 = 0.5596 | 2.47 ± 0.2 | 1.81 ± 0.15 | 1.41 ± 0.11 | 1.12 ± 0.09
100 kPa, x2 = 0.6491 | 2.02 ± 0.16 | 1.52 ± 0.12 | 1.18 ± 0.1 | 0.95 ± 0.08
100 kPa, x2 = 0.7411 | 1.64 ± 0.13 | 1.27 ± 0.1 | 1 ± 0.08 | 0.82 ± 0.07
100 kPa, x2 = 0.8503 | 1.28 ± 0.1 | 1.03 ± 0.08 | 0.83 ± 0.07 | 0.7 ± 0.06
100 kPa, x2 = 0.9397 | 1.07 ± 0.09 | 0.87 ± 0.07 | 0.72 ± 0.06 | 0.62 ± 0.05
101.33 kPa, x1 = 0.0996 | – | 0.9648 ± 0.012 | – | –
101.33 kPa, x1 = 0.197 | – | 1.134 ± 0.014 | – | –
101.33 kPa, x1 = 0.3024 | – | 1.357 ± 0.016 | – | –
101.33 kPa, x1 = 0.3923 | – | 1.585 ± 0.019 | – | –
101.33 kPa, x1 = 0.5062 | – | 1.936 ± 0.023 | – | –
101.33 kPa, x1 = 0.6052 | – | 2.307 ± 0.027 | – | –
101.33 kPa, x1 = 0.7008 | – | 2.749 ± 0.032 | – | –
101.33 kPa, x1 = 0.795 | – | 3.258 ± 0.037 | – | –
101.33 kPa, x1 = 0.884 | – | 3.84 ± 0.043 | – | –

OC1CCCCC1 + C1CCCCC1
101 kPa
Conditions | viscosity [mPa·s]
303.15 K, x2 = 0.05 | 19 ± 1
303.15 K, x2 = 0.09 | 15.63 ± 0.44
303.15 K, x2 = 0.14 | 12.83 ± 0.36
308 K, x2 = 0.1168 | 10.68 ± 0.074
308 K, x2 = 0.2322 | 7.143 ± 0.051
308 K, x2 = 0.3358 | 4.937 ± 0.037
308 K, x2 = 0.4443 | 3.51 ± 0.026
308 K, x2 = 0.5452 | 2.453 ± 0.019
308 K, x2 = 0.6483 | 1.716 ± 0.013
308 K, x2 = 0.7411 | 1.326 ± 0.01
308 K, x2 = 0.8311 | 1.049 ± 0.0083
308 K, x2 = 0.918 | 0.8891 ± 0.0071
323.15 K, x2 = 0.05 | 7.54 ± 0.22
323.15 K, x2 = 0.09 | 6.39 ± 0.18
323.15 K, x2 = 0.14 | 5.53 ± 0.16

CCCCC + C1CCOC1
viscosity [mPa·s], 101 kPa
Conditions | x2 = 0.1001 | x2 = 0.2001 | x2 = 0.3001 | x2 = 0.4001 | x2 = 0.5001 | x2 = 0.6001 | x2 = 0.7001 | x2 = 0.8001 | x2 = 0.9001
293.15 K | 0.2331 ± 0.011 | 0.2498 ± 0.011 | 0.2688 ± 0.012 | 0.2894 ± 0.012 | 0.3116 ± 0.013 | 0.3371 ± 0.014 | 0.3686 ± 0.014 | 0.4034 ± 0.015 | 0.4485 ± 0.017
298.15 K | 0.2241 ± 0.01 | 0.2405 ± 0.011 | 0.258 ± 0.011 | 0.2768 ± 0.012 | 0.2977 ± 0.012 | 0.3204 ± 0.013 | 0.347 ± 0.014 | 0.38 ± 0.015 | 0.4212 ± 0.016

CCOC(=O)C(C)O (stereo not given) + C1CCOC1
101 kPa
Conditions | viscosity [mPa·s]
308.15 K, x1 = 0.6999 | 1.255 ± 0.024
313.15 K, x1 = 0.4001 | 0.7575 ± 0.014

CS(C)=O + C1CCOC1
298.15 K, 101 kPa
Conditions | viscosity [mPa·s]
x2 = 0.27 | 1.523 ± 0.013
x2 = 0.52 | 1.112 ± 0.01
x2 = 0.76 | 0.7376 ± 0.0083

CCCCC + CC1CCCCC1
viscosity [mPa·s], 101 kPa
Conditions | x2 = 0.0407 | x2 = 0.2014 | x2 = 0.2807 | x2 = 0.3471 | x2 = 0.4382 | x2 = 0.6005 | x2 = 0.681 | x2 = 0.7595 | x2 = 0.8406 | x2 = 0.9199
293.15 K | 0.2369 ± 0.003 | 0.2738 ± 0.0033 | 0.2958 ± 0.0035 | 0.3151 ± 0.0037 | 0.3506 ± 0.004 | 0.429 ± 0.0049 | 0.4775 ± 0.0054 | 0.5323 ± 0.0061 | 0.5947 ± 0.0069 | 0.6586 ± 0.0077
298.15 K | 0.2277 ± 0.003 | 0.2567 ± 0.0032 | 0.2795 ± 0.0034 | 0.3014 ± 0.0036 | 0.337 ± 0.0039 | 0.4124 ± 0.0047 | 0.4571 ± 0.0053 | 0.5046 ± 0.0058 | 0.5587 ± 0.0065 | 0.6168 ± 0.0073
303.15 K | 0.1977 ± 0.0028 | 0.2381 ± 0.0031 | 0.2612 ± 0.0033 | 0.2824 ± 0.0035 | 0.3164 ± 0.0038 | 0.3885 ± 0.0045 | 0.431 ± 0.005 | 0.4771 ± 0.0056 | 0.5299 ± 0.0062 | 0.5849 ± 0.007

CCCCCCCO + CC#N
viscosity [mPa·s], 101 kPa
Conditions | 298.15 K | 303.15 K | 308.15 K
x2 = 0.0959 | 3.772 ± 0.32 | 3.561 ± 0.31 | 2.881 ± 0.25
x2 = 0.2368 | 2.953 ± 0.26 | 2.592 ± 0.23 | 2.277 ± 0.2
x2 = 0.3327 | 2.267 ± 0.2 | 2.022 ± 0.18 | 1.808 ± 0.16
x2 = 0.4126 | 1.836 ± 0.17 | 1.634 ± 0.15 | 1.457 ± 0.13
x2 = 0.5459 | 1.278 ± 0.12 | 1.149 ± 0.11 | 1.047 ± 0.099
x2 = 0.6546 | 0.943 ± 0.091 | 0.857 ± 0.084 | 0.786 ± 0.078
x2 = 0.741 | 0.716 ± 0.072 | 0.658 ± 0.067 | 0.611 ± 0.063
x2 = 0.8119 | 0.58 ± 0.061 | 0.547 ± 0.058 | 0.51 ± 0.055
x2 = 0.8706 | 0.487 ± 0.053 | 0.463 ± 0.051 | 0.433 ± 0.048
x2 = 0.9199 | 0.423 ± 0.047 | 0.402 ± 0.046 | 0.382 ± 0.044
x2 = 0.9633 | 0.384 ± 0.044 | 0.366 ± 0.043 | 0.35 ± 0.041

C[N+](C)(C)CCC[n+]1ccccc1.N#C[N-]C#N.N#C[N-]C#N + CC#N
100 kPa
Conditions | viscosity [mPa·s]
293.15 K, x1 = 0.1999 | 10.75 ± 1.1
298.15 K, x1 = 0.0999 | 3.205 ± 0.32
298.15 K, x1 = 0.1999 | 9.545 ± 0.96
298.15 K, x1 = 0.4999 | 98.11 ± 10
308.15 K, x1 = 0.2998 | 20.95 ± 2.1
313.15 K, x1 = 0.2998 | 18.15 ± 1.8
318.15 K, x1 = 0.7998 | 117.5 ± 12

CC(=O)CC(C)(C)O + CC(=O)CC(C)C
298.15 K, 101 kPa
Conditions | viscosity [mPa·s]
x2 = 0.1301 | 2.157 ± 0.021
x2 = 0.2473 | 1.707 ± 0.017
x2 = 0.3676 | 1.351 ± 0.013
x2 = 0.4821 | 1.108 ± 0.011
x2 = 0.5836 | 0.943 ± 0.009
x2 = 0.6974 | 0.796 ± 0.008
x2 = 0.8046 | 0.687 ± 0.007
x2 = 0.9001 | 0.608 ± 0.006
